Data taken from patent publication US20120142947A1, “Stabilized 3-Hydroxyflavan Compositions and Methods Therefor” (priority 2005, published 2012).

Test: Prevention of discoloration of EGCG solutions (absorbance at 492 nm)
Assay type: physicochemical
Settings: for protection of EGCG from discoloration by reducing agent: further experiments at the observed pH ranges (data not shown)
Experimental: Discoloration was measured using a spectrophotometer at a fixed wavelength of 492 nm. More specifically, solutions of EGCG (2 mM) and NAC (4 mM) were prepared in McIlvaine buffer at various pH levels in 1.0 increments between pH 3.0 to pH 7.0. A control experiment was set up without NAC but otherwise identical conditions. The so prepared solutions were incubated at 55° C. and the discoloration was measured at 492 nm over the next 15 days.

For CC(=O)N[C@@H](CS)C(=O)O [NAC, N-acetyl cysteine], the “discoloration measured at 492 nm” value (EGCG (2 mM) and NAC (4 mM) in McIlvaine buffer, pH levels of less than 6.0, 55° C., over 15 days, versus control without NAC) was “substantially reduced” and the “protection of EGCG from discoloration by reducing agent” value (“protection of EGCG … by reducing agent” below) was “prevented discoloration”.

In the case of N[C@@H](CS)C(=O)O [cysteine], the “protection of EGCG … by reducing agent” value was “failed to provide significant protection from discoloration”.

For N[C@@H](CCC(=O)N[C@@H](CS)C(=O)NCC(=O)O)C(=O)O [glutathione], the “protection of EGCG … by reducing agent” value was “prevented discoloration”.
